The source of these data is PubChem BioAssay (NCI).

What all share (experiment): growth of human tumour cells (NCI), 48 h
For assay [1], the system named is HOP-92 NSCLC.
Assay [2] has as its system CCRF-CEM leukemia.
Assay [3] concerns 786-0 renal.
In assay [4] the test system is HOP-62 NSCLC.
The subject of assay [5] is SK-MEL-28 melanoma.
The subject of assay [6] is COLO 205 colon.
Assay [7] has as its system SK-OV-3 ovarian.
Assay [8] has as its system CAKI-1 renal.
For assay [9], the system named is SK-MEL-5 melanoma.
For assay [10], the system named is NCI-H522 lung.

Structures are written as SMILES.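 Exposure lasted 48 hours, with cells grown in 96-well plates and compounds tested at five concentrations. Here, GI50 denotes the concentration required for 50% inhibition of growth. At the TGI there is no net growth.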 Bounds are passed on as bounds.

As to `N#Cc1c(-c2ccccc2)c(-c2ccccc2)cc2c(=O)c3ccc(Cl)cc3[nH]c12`, the TGI in assay [1], in assay [2], in assay [3], in assay [4], in assay [5] and in assay [6] was over 100 µM in each case. The compound also showed a TGI in assay [7] of over 100 µM.

Turning to `O=C1c2cccc3c(N4CCOCC4)ccc(c23)C(=O)N1CCN1CCN(CCCCCN2CCN(CCN3C(=O)c4cccc5c(N6CCOCC6)ccc(c45)C3=O)CC2)CC1`, the GI50 in assay [1] was 76.6 µM; in assay [2] it was 32.9 µM; in [3] it was 55.8 µM; in [4], 52.3 µM; in assay [5], over 100 µM; in [6], 46.1 µM. Further, the GI50 in assay [8] is over 100 µM; in [9], 57.2 µM; in assay [7], over 100 µM. Moreover, the TGI in assay [1], in assay [2], in [3], in assay [4], in [5] and in [6] was over 100 µM in each case. Besides, the TGI in assay [8], in assay [9] and in assay [7] was over 100 µM throughout.

For the compound `O=C(Nc1ccccc1C(=O)NC(=O)c1ccccc1NC(=O)c1ccccc1)c1ccccc1`, the TGI in assay [1] came to 6.5 µM; in assay [2], 16.4 µM; in assay [3], 29.3 µM; in assay [4] it was 36.4 µM; in assay [5], 10.6 µM; in assay [6], 2.87 µM. Besides, the TGI in assay [8] stood at 29.1 µM; in assay [9] it was 12.2 µM.

As for `Cc1ccc(-n2nc(C(OC3OC(CO)C(O)C(O)C3O)C(O)CO)c3nc4cc(C)c(C)cc4nc32)cc1` (stereo not drawn), the TGI in [2], in [3], in assay [4], in [5], in assay [10] and in [7] was over 100 µM in each case.

With `O=C(Nc1nc2ccc(S(=O)(=O)Nc3ccc(C4(C(F)(F)F)CC4)cc3)cc2[nH]1)c1cnccn1`, the GI50 in assay [1] was 1.04 µM; in assay [3], 2.77 µM; in assay [4], 3.85 µM; in [5], 4.58 µM; in assay [6], 2.84 µM; in [8] it was 4.19 µM. Further, the GI50 in assay [9] was 0.693 µM; in [10], 1.07 µM. Further, the TGI in assay [1] was 2.4 µM; in assay [3], 12.6 µM; in assay [4] it was 23 µM; in assay [5], 19.2 µM; in assay [6] it was 17.5 µM; in assay [8] it was 16.2 µM. For the same compound, the TGI stood at 4.3 µM in [9] and 14.4 µM in assay [10].

As for `CCOC(=O)c1cn(C)c2c(OC)c3ccccc3c(OC)c2c1=O`, the GI50 in [2] is 34.1 µM; in assay [3], over 100 µM; in assay [4], 33.3 µM; in assay [5], 56 µM; in assay [6] it was 63.8 µM; in assay [8], 29.7 µM. In addition, the results for the GI50 in assay [10] and in [7] were over 100 µM and 77.1 µM, respectively. Also, the TGI is over 100 µM in [2]; over 100 µM in [3]; 82.7 µM in assay [4]; over 100 µM in assay [5]; over 100 µM in [6]; 76.8 µM in [8]. Also, the TGI in assay [10] and in assay [7] was over 100 µM each time.

Consider `O=C1C=CC2(CCC23C=CC(=O)O3)O1` (stereo not drawn), for which the TGI in assay [2], in assay [3], in [4], in [5], in [6] and in assay [10] was over 100 µM in each case. This compound also yielded a TGI in [7] of over 100 µM.

With `CC(C)c1ccc(Cc2ccc(C(C)C)c(NC(=O)C(=O)Cc3cnc4ccccc4n3)c2C(C)C)c(C(C)C)c1NC(=O)C(=O)Cc1cnc2ccccc2n1`, the TGI is 91.8 µM in assay [1]; over 100 µM in assay [2]; over 100 µM in [3]; over 100 µM in [4]; over 100 µM in [6]; over 100 µM in assay [8]. Also, the TGI in [9] and in [7] was over 100 µM each time.

With `Cc1nc2ccncc2[nH]1`, the TGI in [2], in assay [3], in assay [4], in assay [5], in [6] and in [8] was over 100 µM in each case. The TGI in [9] is over 100 µM.

Take `N#Cc1ccccc1Sc1ccccc1N`: the TGI in assay [1], in [2], in assay [3], in assay [4], in [5] and in [6] was over 100 µM each time. For the same compound, the TGI in assay [8] is over 100 µM; in assay [9], 77.3 µM; in assay [7], over 100 µM.

As to `CCC(Oc1ccc(OC)c2c1C(=O)CCC2)C(=O)O` (stereo not drawn), the TGI in assay [2], in assay [3], in [4], in [5], in assay [6] and in assay [9] was over 100 µM in each case. For the same compound, the TGI in assay [10] and in [7] was over 100 µM each time.

For the compound `Nc1c(C(=O)Nc2ccccc2)sc2nc3c(cc12)C(=O)CCC3`, the GI50 was 0.374 µM in assay [2]; 1.27 µM in [3]; 0.745 µM in assay [4]; 0.71 µM in [5]; 0.364 µM in assay [6]; 0.485 µM in assay [8]. The GI50 in assay [9] is 0.249 µM; in [10], 0.215 µM; in [7] it was 0.412 µM. Besides, the TGI in [2] is over 100 µM; in assay [3], over 100 µM; in [4], over 100 µM; in assay [5] it was over 100 µM; in [6], 2.99 µM; in [8] it was over 100 µM. In addition, the TGI is 5.7 µM in assay [9], 1.29 µM in [10] and over 100 µM in assay [7].
